Literature values as cited in patent EP4670741A1 (priority 2023, dated 2024).

How the values were obtained:
Topoisomerase I = biological target: T1, Topoisomerase I (Homo sapiens, UniProt P11387); conditions: Topoisomerase I inhibitor
T1 sequence (P11387 1-765): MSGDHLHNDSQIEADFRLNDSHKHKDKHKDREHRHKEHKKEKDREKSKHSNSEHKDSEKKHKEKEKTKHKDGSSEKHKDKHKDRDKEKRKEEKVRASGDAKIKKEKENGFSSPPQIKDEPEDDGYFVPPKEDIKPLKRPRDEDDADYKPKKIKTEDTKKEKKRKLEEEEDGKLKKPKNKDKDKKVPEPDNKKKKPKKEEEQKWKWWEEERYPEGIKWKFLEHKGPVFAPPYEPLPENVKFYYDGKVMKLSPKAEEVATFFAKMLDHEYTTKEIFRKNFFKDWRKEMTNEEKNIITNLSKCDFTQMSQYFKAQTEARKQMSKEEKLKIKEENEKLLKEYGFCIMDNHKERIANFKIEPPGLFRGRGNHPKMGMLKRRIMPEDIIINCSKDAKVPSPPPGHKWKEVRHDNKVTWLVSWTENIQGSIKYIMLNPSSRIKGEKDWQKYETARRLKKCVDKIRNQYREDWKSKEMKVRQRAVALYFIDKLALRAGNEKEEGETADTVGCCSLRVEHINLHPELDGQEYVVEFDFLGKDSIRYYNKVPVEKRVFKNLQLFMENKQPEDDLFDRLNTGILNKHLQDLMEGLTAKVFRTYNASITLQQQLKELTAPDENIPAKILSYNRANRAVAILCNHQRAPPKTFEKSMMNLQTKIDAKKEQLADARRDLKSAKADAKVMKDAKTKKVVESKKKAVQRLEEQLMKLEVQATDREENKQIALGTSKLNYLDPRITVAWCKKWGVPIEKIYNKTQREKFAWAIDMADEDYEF

[1] = system: various cancer cell lines; conditions: read-out: IC50 values; 140 cell lines derived from various tumor types; majority of tested cancer cells

CC[C@@]1(O)C(=O)OCc2c1cc1n(c2=O)Cc2c-1nc1cc(F)c(C)c3c1c2[C@@H](NC(=O)CO)CC3 [Dxd]
IC50 (Topoisomerase I): 0.31 µM

CC[C@@]1(O)C(=O)OCc2c1cc1n(c2=O)Cc2cc3cc4c(cc3nc2-1)OCO4 [FL118]
IC50 [1]: < 0.1 µM
